Assay results from patent publication US10174029B2, “Pyrimidine-2,4-diamine derivatives for treatment of cancer” (THOMAS HELLEDAYS STIFTELSE FOR MEDICINSK FORSKNING, priority 2012, dated 2019).
Structures can show the parent of a compound that is named as a salt.

These compounds were tested against MTH1 (Homo sapiens, UniProt P36639) (assay: MTH1 enzymatic assay and IC50 value determination (malachite green)). Details: MTH1 4.8 nM, dGTP 100 μM, 15 minutes at 22° C.; group: between 2 μM and 10 μM.
Type: biochemical
Experimental: MTH1 Enzymatic Assay and IC50 Value Determination
MTH1 catalyzes the hydrolysis of dGTP to dGMP and PPi. By coupling the reaction to pyrophosphatase added in excess PPi is converted to Pi that can be detected by using the malachite green assay reagent. Briefly, for IC50 value determination the compound to be analyzed is diluted in assay buffer in a 1:3 dilution series generating 12 different compound concentrations giving a final DMSO concentration of 1% in the assay well. MTH1 diluted in assay buffer (100 mM Tris-acetate, 40 mM NaCl, 10 mM magnesium acetate, 1 mM DTT and 0.005% Tween 20) fortified with E. coli pyrophosphatase (0.8 U/ml) is added to a final concentration of 4.8 nM. dGTP diluted in assay buffer is added to a final concentration of 100 μM. The reaction mixture is incubated with shaking for 15 minutes at 22° C. To 100 μl reaction mixture is 25 μl Malachite green assay regent (0.095% Malachite green in 17% H2SO4, 1.5% Ammonium molybdate, 0.17% Tween 20) added followed by incubation with shaking for 15 minutes at 22° C.
The absorbance of the assay plate is read at 630 nm using an EnVision Multilabel plate reader. The IC50 value is determined by fitting a dose response curve to the data points using nonlinear regression analysis and the equation Y=Bottom+(Top−Bottom)/(1+10^((Log IC50−X)*HillSlope)), where Y is the read absorbance at 630 nm and X is log [compound].

| Compound | IC50 |
| --- | --- |
| Cc1cccc(-c2cc(NC3CCN(C(=O)OC(C)(C)C)CC3)nc(N)n2)c1C [Example 237, tert-Butyl 4-((2-amino-6-(2,3-dimethylphenyl)pyrimidin-4-yl)amino)piperidine-1-carboxylate] | 2 to 10 µM |

Same assay, conditions: MTH1 4.8 nM, dGTP 100 μM, 15 minutes at 22° C.; group: less than 200 nM

| Compound | IC50 |
| --- | --- |
| Cc1ccc(Cl)cc1-c1cc(NC2CC2)nc(N)n1 [Example 219, 6-(5-chloro-2-methylphenyl)-4-N-cyclopropylpyrimidine-2,4-diamine] | < 0.2 µM |
| Cc1ccc(Cl)cc1-c1cc(NC2CCC2)nc(N)n1 [Example 220, 6-(5-chloro-2-methylphenyl)-4-N-cyclobutylpyrimidine-2,4-diamine] | < 0.2 µM |
| Cc1ccc(Cl)cc1-c1cc(NCCc2ccc(Cl)cc2)nc(N)n1 [Example 222, 6-(5-chloro-2-methylphenyl)-4-N-[2-(4-chlorophenyl)ethyl]pyrimidine-2,4-diamine] | < 0.2 µM |
| CNc1cc(-c2cccc(C)c2Cl)nc(N)n1 [Example 226, 6-(2-chloro-3-methylphenyl)-4-N-methylpyrimidine-2,4-diamine] | < 0.2 µM |
| Cc1cccc(-c2cc(NC3CC3)nc(N)n2)c1Cl [Example 227, 6-(2-chloro-3-methylphenyl)-4-N-cyclopropylpyrimidine-2,4-diamine] | < 0.2 µM |
| Cc1cccc(-c2cc(NCCc3ccc(Cl)cc3)nc(N)n2)c1Cl [Example 228, 6-(2-chloro-3-methylphenyl)-4-N-[2-(4-chlorophenyl)ethyl]pyrimidine-2,4-diamine] | < 0.2 µM |
| Nc1nc(NC2CC2)cc(-c2cccc3[nH]ccc23)n1 [Example 230, 4-N-cyclopropyl-6-(1H-indol-4-yl)pyrimidine-2,4-diamine] | < 0.2 µM |
| Nc1nc(NCCc2ccc(Cl)cc2)cc(-c2cccc3[nH]ccc23)n1 [Example 231, 4-N-[2-(4-chlorophenyl)ethyl]-6-(1H-indol-4-yl)pyrimidine-2,4-diamine] | < 0.2 µM |
| Nc1nc(NC2CC2)cc(-c2cccc3ncccc23)n1 [Example 232, 4-N-cyclopropyl-6-(quinolin-5-yl)pyrimidine-2,4-diamine] | < 0.2 µM |
| Cc1c(Cl)cccc1-c1cc(NC2CC3CCC2C3)nc(N)n1 (stereo not drawn) [Example 244, 4-N-{bicyclo[2.2.1]heptan-2-yl}-6-(3-chloro-2-methylphenyl)pyrimidine-2,4-diamine] | < 0.2 µM |
| CCNc1cc(-c2cccc(Cl)c2C)nc(N)n1 [Example 245, 6-(3-chloro-2-methylphenyl)-4-N-ethylpyrimidine-2,4-diamine] | < 0.2 µM |
| Cc1c(Cl)cccc1-c1cc(NC(C)C)nc(N)n1 [Example 246, 6-(3-chloro-2-methylphenyl)-4-N-(propan-2-yl)pyrimidine-2,4-diamine] | < 0.2 µM |
| Cc1ccc2[nH]c(C)c(CCNc3cc(-c4cccc(C)c4C)nc(N)n3)c2c1 [Example 249, 4-N-[2-(2,5-dimethyl-1H-indol-3-yl)ethyl]-6-(2,3-dimethylphenyl)pyrimidine-2,4-diamine] | < 0.2 µM |
| Cc1cccc(-c2cc(NCc3ccc4cn[nH]c4c3)nc(N)n2)c1C [Example 252, 6-(2,3-dimethylphenyl)-4-N-(1H-indazol-6-ylmethyl)pyrimidine-2,4-diamine] | < 0.2 µM |
| Cc1cccc(-c2cc(NCc3cnc(Cl)cn3)nc(N)n2)c1C [Example 254, 4-N-[(5-chloropyrazin-2-yl)methyl]-6-(2,3-dimethylphenyl)pyrimidine-2,4-diamine] | < 0.2 µM |
| CNc1cc(-c2ccc(OCC3CCN(C(=O)OC(C)(C)C)CC3)c(COC)c2)nc(N)n1 [Example 256, tert-butyl 4-{4-[2-amino-6-(methylamino)pyrimidin-4-yl]-2-(methoxymethyl)phenoxymethyl}piperidine-1-carboxylate] | < 0.2 µM |
| CNc1cc(-c2ccc(OCC3CCNCC3)c(COC)c2)nc(N)n1 [Example 257, 6-[3-(methoxymethyl)-4-(piperidin-4-ylmethoxy)phenyl]-4-N-methylpyrimidine-2,4-diamine hydrochloride] | < 0.2 µM |
